Measured values from ChEMBL document CHEMBL3758095, “Preliminary evaluation of fluoro-pegylated benzyloxybenzenes for quantification of β-amyloid plaques by positron emission tomography” (Eur J Med Chem, 2015).
Blank lines part the entries; values can stand above or below the compound they belong to. Calls of active or inactive are those of the source. The calls are words filed in the database; no cut-off is given here.

Experiments:
Stomach [1] = experiment: Biodistribution in iv dosed ICR mouse stomach assessed per organ measured at 2 mins; format: ADME, organism-based; conditions: in vivo
[2] = Partition coefficient, log D of the compound; format: physicochemical; conditions: octanol/water
Intestine [3] = experiment: Biodistribution in iv dosed ICR mouse intestine assessed per organ measured at 2 mins; format: ADME, organism-based; conditions: in vivo
Stomach [4] = experiment: Biodistribution in iv dosed ICR mouse stomach assessed per organ measured at 10 mins; format: ADME, organism-based; conditions: in vivo
Brain [5] = experiment: Biodistribution in iv dosed ICR mouse brain measured at 2 mins; format: ADME, organism-based; conditions: in vivo
Intestine [6] = experiment: Biodistribution in iv dosed ICR mouse intestine assessed per organ measured at 10 mins; format: ADME, organism-based; conditions: in vivo
Liver [7] = experiment: Biodistribution in iv dosed ICR mouse liver measured at 10 mins; format: ADME, organism-based; conditions: in vivo
Intestine [8] = experiment: Biodistribution in iv dosed ICR mouse intestine assessed per organ measured at 30 mins; format: ADME, organism-based; conditions: in vivo, 0.5 h
Intestine [9] = experiment: Biodistribution in iv dosed ICR mouse intestine assessed per organ measured at 60 mins; format: ADME, organism-based; conditions: in vivo, 1 h
Stomach [10] = experiment: Biodistribution in iv dosed ICR mouse stomach assessed per organ measured at 30 mins; format: ADME, organism-based; conditions: in vivo, 0.5 h
Stomach [11] = experiment: Biodistribution in iv dosed ICR mouse stomach assessed per organ measured at 60 mins; format: ADME, organism-based; conditions: in vivo, 1 h
[12] = biological target: T1, Amyloid-beta precursor protein (Homo sapiens, UniProt P05067); experiment: Displacement of [125I]BOB-4 from Amyloid beta (1 to 42) (unknown origin)
T1 sequence (P05067 whole entry): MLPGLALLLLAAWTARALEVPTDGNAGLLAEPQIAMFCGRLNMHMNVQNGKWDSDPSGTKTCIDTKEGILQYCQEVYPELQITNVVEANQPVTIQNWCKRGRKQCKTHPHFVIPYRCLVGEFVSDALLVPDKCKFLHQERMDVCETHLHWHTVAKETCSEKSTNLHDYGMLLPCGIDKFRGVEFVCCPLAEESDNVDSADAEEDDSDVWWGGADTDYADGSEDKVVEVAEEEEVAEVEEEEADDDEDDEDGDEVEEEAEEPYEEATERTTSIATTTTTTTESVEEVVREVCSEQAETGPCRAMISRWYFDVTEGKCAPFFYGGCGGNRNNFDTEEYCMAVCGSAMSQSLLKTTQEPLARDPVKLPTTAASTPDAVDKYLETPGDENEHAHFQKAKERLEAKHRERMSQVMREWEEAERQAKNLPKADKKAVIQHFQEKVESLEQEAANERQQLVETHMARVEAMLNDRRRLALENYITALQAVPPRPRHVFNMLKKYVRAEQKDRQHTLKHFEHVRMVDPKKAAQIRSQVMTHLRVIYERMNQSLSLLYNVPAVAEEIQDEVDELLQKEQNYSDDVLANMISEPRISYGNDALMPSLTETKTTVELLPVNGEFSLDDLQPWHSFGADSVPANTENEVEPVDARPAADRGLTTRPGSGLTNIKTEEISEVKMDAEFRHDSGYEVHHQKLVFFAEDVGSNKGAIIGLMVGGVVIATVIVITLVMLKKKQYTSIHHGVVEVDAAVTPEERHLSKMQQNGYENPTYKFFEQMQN

Mus musculus [13] = experiment: In vivo binding affinity to amyloid beta plaques in C57BL6 Appswe/PSEN1 Tg mouse brain cortex at 1 mCi, iv after 20 mins by DANIR 3b staining based autoradiographic analysis; format: functional, organism-based; conditions: tested as the 18F-labelled form
Mus musculus [14] = experiment: In vivo binding affinity to amyloid beta in wild type C57BL6 mouse hippocampus at 1 mCi, iv after 20 mins by DANIR 3b staining based autoradiographic analysis; format: functional, organism-based; conditions: tested as the 18F-labelled form
Mus musculus [15] = experiment: In vivo binding affinity to amyloid beta in wild type C57BL6 mouse cerebellum at 1 mCi, iv after 20 mins by DANIR 3b staining based autoradiographic analysis; format: functional, organism-based; conditions: tested as the 18F-labelled form
[16] = biological target: T1, Amyloid-beta precursor protein; experiment: Binding affinity to amyloid beta plaques in healthy human brain by DANIR 3b staining based autoradiographic analysis; conditions: tested as the 18F-labelled form
Mus musculus [17] = experiment: In vivo binding affinity to amyloid beta in wild type C57BL6 mouse brain cortex at 1 mCi, iv after 20 mins by DANIR 3b staining based autoradiographic analysis; format: functional, organism-based; conditions: tested as the 18F-labelled form
Mus musculus [18] = organism: Mus musculus; experiment: Binding affinity to amyloid beta plaques in C57BL6 APPswe/PSEN1 Tg mouse cerebral cortex by DANIR 3b staining based autoradiographic analysis; format: tissue-based; conditions: tested as the 18F-labelled form
Mus musculus [19] = organism: Mus musculus; experiment: Binding affinity to amyloid beta plaques in C57BL6 mouse brain by DANIR 3b staining based autoradiographic analysis; format: tissue-based; conditions: tested as the 18F-labelled form
Mus musculus [20] = experiment: In vivo binding affinity to amyloid beta plaques in C57BL6 Appswe/PSEN1 Tg mouse hippocampus at 1 mCi, iv after 20 mins by DANIR 3b staining based autoradiographic analysis; format: functional, organism-based; conditions: tested as the 18F-labelled form
Mus musculus [21] = experiment: In vivo binding affinity to amyloid beta plaques in C57BL6 Appswe/PSEN1 Tg mouse cerebellum at 1 mCi, iv after 20 mins by DANIR 3b staining based autoradiographic analysis; format: functional, organism-based; conditions: tested as the 18F-labelled form
Mus musculus [22] = organism: Mus musculus; experiment: Binding affinity to amyloid beta plaques in white matter of C57BL6 APPswe/PSEN1 Tg mouse brain by DANIR 3b staining based autoradiography analysis; format: tissue-based; conditions: tested as the 18F-labelled form
[23] = biological target: T1, Amyloid-beta precursor protein; experiment: Binding affinity to amyloid beta plaques in alzheimer's disease patient cerebral cortex by DANIR 3b staining based autoradiographic analysis; format: tissue-based; conditions: tested as the 18F-labelled form
[24] = biological target: T1, Amyloid-beta precursor protein; experiment: Binding affinity to amyloid beta plaques in white matter of alzheimer's disease patient brain by DANIR 3b staining based autoradiographic analysis; format: tissue-based; conditions: tested as the 18F-labelled form
[25] = Metabolic stability in ICR mouse feces assessed as compound remaining at 35 to 45 Mbq, iv measured at 30 mins by HPLC analysis; format: ADME, organism-based; conditions: faeces, read-out: Stability
Liver [26] = experiment: Retention time of the compound in ICR mouse liver at 35 to 45 Mbq, iv by HPLC analysis; format: ADME, organism-based
Plasma = experiment: Retention time of the compound in ICR mouse plasma at 35 to 45 Mbq, iv by HPLC analysis; format: ADME, organism-based
[27] = Metabolic stability in ICR mouse brain assessed as compound remaining at 35 to 45 Mbq, iv measured at 2 mins by HPLC analysis; format: ADME, organism-based; conditions: read-out: Stability
[28] = Metabolic stability in ICR mouse brain assessed as compound remaining at 35 to 45 Mbq, iv measured at 30 mins by HPLC analysis; format: ADME, organism-based; conditions: read-out: Stability
[29] = Metabolic stability in ICR mouse liver assessed as compound remaining at 35 to 45 Mbq, iv measured at 60 mins by HPLC analysis; format: ADME, organism-based; conditions: read-out: Stability
[30] = Metabolic stability in ICR mouse brain assessed as compound remaining at 35 to 45 Mbq, iv measured at 60 mins by HPLC analysis; format: ADME, organism-based; conditions: read-out: Stability
[31] = Metabolic stability in ICR mouse plasma assessed as compound remaining at 35 to 45 Mbq, iv measured at 2 mins by HPLC analysis; format: ADME, organism-based; conditions: read-out: Stability
[32] = Metabolic stability in ICR mouse liver assessed as compound remaining at 35 to 45 Mbq, iv measured at 2 mins by HPLC analysis; format: ADME, organism-based; conditions: read-out: Stability
[33] = Metabolic stability in ICR mouse liver assessed as compound remaining at 35 to 45 Mbq, iv measured at 30 mins by HPLC analysis; format: ADME, organism-based; conditions: read-out: Stability
[34] = Metabolic stability in ICR mouse plasma assessed as compound remaining at 35 to 45 Mbq, iv measured at 30 mins by HPLC analysis; format: ADME, organism-based; conditions: read-out: Stability
Brain [35] = experiment: Ratio of drug level in iv dosed ICR mouse brain at 2 to 60 mins; format: ADME, organism-based; conditions: in vivo
[36] = Metabolic stability in ICR mouse plasma assessed as compound remaining at 35 to 45 Mbq, iv measured at 60 mins by HPLC analysis; format: ADME, organism-based; conditions: read-out: Stability
Brain [37] = experiment: Ratio of drug level in CD1 mouse brain at 370 kBq measured at 2 to 60 mins; format: ADME; conditions: in vivo

SMILES: CN(C)c1ccc(COc2ccc(OCCOCCF)cc2)cc1
Ki [12]: 191 nM | inhibition [12]: Dose-dependent effect

SMILES: CN(C)c1ccc(OCc2ccc(OCCF)cc2)cc1
Activity (Mus musculus [13]): Active | Activity (Mus musculus [14]): inactive | Activity (Mus musculus [15]): inactive | Activity [16]: inactive | Activity (Mus musculus [17]): inactive | Activity (Mus musculus [18]): Active | Activity (Mus musculus [19]): inactive | Activity (Mus musculus [20]): Active | Activity (Mus musculus [21]): Active | Activity (Mus musculus [22]): inactive | Activity [23]: Active | Activity [24]: inactive | Ki [12]: 21 nM | inhibition [12]: Dose-dependent effect

SMILES: CN(C)c1ccc(COc2ccc(OCC[18F])cc2)cc1
remaining at 0.5 h [25]: 14.6% | Drug uptake (Stomach [1]): 0.92 %ID | logD [2]: 3.11 | Drug uptake (Intestine [3]): 5.52 %ID | Retention_time (Liver [26]): 9.1 min | Retention_time (Plasma): 9.1 min | Drug uptake (Stomach [4]): 0.54 %ID | remaining at 2 min [27]: 76.7% | Drug uptake (Brain [5]): 4.51 % ID/g | remaining at 0.5 h [28]: 20.6% | Drug uptake (Intestine [6]): 3.12 %ID | Drug uptake (Liver [7]): 3.23 % ID/g | Drug uptake (Intestine [8]): 2.35 %ID | remaining at 1 h [29]: 10.6% | remaining at 1 h [30]: 16.7% | Drug uptake (Intestine [9]): 1.72 %ID | remaining at 2 min [31]: 10.8% | Drug uptake (Stomach [10]): 0.37 %ID | Drug uptake (Stomach [11]): 0.22 %ID | remaining at 2 min [32]: 22.6% | remaining at 0.5 h [33]: 8.4%

SMILES: CNc1ccc(/C=C/c2ccc(OCCOCCOCCF)nc2)cc1 [FLORBETAPIR]
Ki [12]: 11.4 nM | inhibition [12]: Dose-dependent effect

SMILES: CN(C)c1ccc(COc2ccc(OCCOCCOCCF)cc2)cc1
Ki [12]: 358 nM | inhibition [12]: Dose-dependent effect

SMILES: CN(C)c1ccc(-c2cn3cc(I)ccc3n2)cc1
inhibition [12]: Dose-dependent effect

SMILES: CN(C)c1ccc(COc2ccc(OCCF)cc2)cc1
Activity [16]: inactive | Activity (Mus musculus [18]): Active | Activity (Mus musculus [19]): inactive | Activity (Mus musculus [22]): inactive | Activity [23]: Active | Activity [24]: inactive | Ki [12]: 25.7 nM | inhibition [12]: Dose-dependent effect

SMILES: CN(C)c1ccc(OCc2ccc(OCC[18F])cc2)cc1
remaining at 0.5 h [34]: 5.8% | Ratio (Brain [35]): 5.1 | remaining at 0.5 h [25]: 22.7% | Drug uptake (Stomach [1]): 2.48 %ID | logD [2]: 2.75 | Drug uptake (Intestine [3]): 5.49 %ID | Drug uptake (Stomach [4]): 4.11 %ID | remaining at 2 min [27]: 95.4% | Drug uptake (Brain [5]): 9.14 % ID/g | remaining at 0.5 h [28]: 31.6% | Drug uptake (Intestine [6]): 5.16 %ID | Drug uptake (Liver [7]): 6.38 % ID/g | Drug uptake (Intestine [8]): 5.63 %ID | remaining at 1 h [29]: 4.4% | remaining at 1 h [30]: 14.8% | Drug uptake (Intestine [9]): 6.71 %ID | remaining at 2 min [31]: 56.5% | Drug uptake (Stomach [10]): 4.69 %ID | Drug uptake (Stomach [11]): 3.58 %ID | remaining at 2 min [32]: 63.5% | remaining at 0.5 h [33]: 9.2% | remaining at 1 h [36]: 5.1%

SMILES: CNc1ccc(-c2nc3ccc(O)cc3s2)cc1
inhibition [12]: Dose-dependent effect

SMILES: CNc1ccc(/C=C/c2ccc(OCCOCCOCC[18F])nc2)cc1 [FLORBETAPIR F 18]
Ratio (Brain [37]): 3.9

Second part, the compound after the results:

Drug uptake (Stomach [1]): 1.53 %ID | logD [2]: 3.04 | Drug uptake (Intestine [3]): 6.3 %ID | Drug uptake (Stomach [4]): 1.1 %ID | Drug uptake (Brain [5]): 9.71 % ID/g | Drug uptake (Intestine [6]): 6.18 %ID | Drug uptake (Liver [7]): 11.16 % ID/g | Drug uptake (Intestine [8]): 16.43 %ID | Drug uptake (Intestine [9]): 26.12 %ID | Drug uptake (Stomach [10]): 1.52 %ID | Drug uptake (Stomach [11]): 0.9 %ID
SMILES: COc1ccc(COc2ccc(OCCOCCOCC[18F])cc2)cc1

Drug uptake (Stomach [1]): 1.22 %ID | logD [2]: 3.65 | Drug uptake (Intestine [3]): 7.09 %ID | Drug uptake (Stomach [4]): 1.08 %ID | Drug uptake (Brain [5]): 9.95 % ID/g | Drug uptake (Intestine [6]): 4.41 %ID | Drug uptake (Liver [7]): 7.47 % ID/g | Drug uptake (Intestine [8]): 7.66 %ID | Drug uptake (Intestine [9]): 13 %ID | Drug uptake (Stomach [10]): 0.78 %ID | Drug uptake (Stomach [11]): 0.77 %ID
SMILES: COc1ccc(COc2ccc(OCC[18F])cc2)cc1

Ki [12]: 119 nM | inhibition [12]: Dose-dependent effect
SMILES: COc1ccc(COc2ccc(OCCF)cc2)cc1

Ki [12]: 438 nM | inhibition [12]: Dose-dependent effect
SMILES: COc1ccc(COc2ccc(OCCOCCF)cc2)cc1

Drug uptake (Stomach [1]): 1.32 %ID | logD [2]: 3.05 | Drug uptake (Intestine [3]): 7.31 %ID | Drug uptake (Stomach [4]): 0.96 %ID | Drug uptake (Brain [5]): 7.54 % ID/g | Drug uptake (Intestine [6]): 4.83 %ID | Drug uptake (Liver [7]): 4.97 % ID/g | Drug uptake (Intestine [8]): 6.85 %ID | Drug uptake (Intestine [9]): 10.75 %ID | Drug uptake (Stomach [10]): 1.29 %ID | Drug uptake (Stomach [11]): 0.98 %ID
SMILES: COc1ccc(OCc2ccc(OCC[18F])cc2)cc1

Ki [12]: 770 nM | inhibition [12]: Dose-dependent effect
SMILES: COc1ccc(COc2ccc(OCCOCCOCCF)cc2)cc1

Ki [12]: 153 nM | inhibition [12]: Dose-dependent effect
SMILES: COc1ccc(OCc2ccc(OCCF)cc2)cc1
